IC50 and LPC-IC50 data for 24 molecules are collected here from patent publication US9670204B2, “Compounds and pharmaceutical compositions thereof for the treatment of inflammatory disorders” (Galapagos NV, priority 2013, dated 2017).

Experiment [1] deals with T1, hENPP2 (UniProtKB/SwissProt Q13822) (Homo sapiens (Human), UniProt Q13822). As to the kind of experiment: hENPP2 biochemical assay, LPC as substrate. The note with it: LPC (palmitoyl 16:0) as substrate. In short, it runs like this:
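Human ENPP2 in 50 mM Tris-HCl pH 8.5, 500 mM NaCl, 5 mM KCl, 10 mM CaCl2, 0.1% fatty-acid-free BSA, reacted 30 min at 37 °C with LPC 16:0 (150 µM solution added 1:1). Released choline measured via choline oxidase/peroxidase/TOOS/4-aminoantipyrine quinoneimine dye at 555 nm; IC50 reported.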

Experiment [2] deals with T1, hENPP2. As to the kind of experiment: fluorescent hENPP2 biochemical assay, FS-3 as substrate. The note with it: read-out: FS3-IC50. In short, it runs like this: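 IC50 values come from fluorescence gained as FS-3 is hydrolysed (ex 485, em 520 nm). The reaction, started by adding 0.75 μM FS-3 solution, runs 30 min at 30° C after a 30 min room-temperature preincubation of compound with enzyme. Buffer: Tris-HCl pH 8.0 with NaCl, KCl, MgCl2, CaCl2 and 0.1% BSA.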

With `CCc1nc2ccc(N3CCN(CC#N)CC3)cn2c1N(C)c1nc(-c2ccc(F)cc2)cs1` [Compound 38, 2-(4-(2-ethyl-3-((4-(4-fluorophenyl)thiazol-2-yl)(methyl)amino)imidazo[1,2-a]pyridin-6-yl)piperazin-1-yl)acetonitrile], the IC50 was more than 1000 nM on hENPP2 [1] and 0.01 to 100 nM at hENPP2 [2].

Regarding `CCc1nc2ccc(C3=CCN(S(=O)(=O)CCCCl)CC3)cn2c1N(C)c1nc(-c2ccc(F)cc2)cs1` [Compound 233, N-(6-(1-(3-chloropropylsulfonyl)-1,2,3,6-tetrahydropyridin-4-yl)-2-ethylimidazo[1,2-a]pyridin-3-yl)-4-(4-fluorophenyl)-N-methylthiazol-2-amine], at hENPP2 [1], the LPC-IC50 entry is given as “not active”. The IC50 on hENPP2 [2] lay in the range of 0.01 to 100 nM.

Consider `CCc1nc2ccc(N3CC(NC(=O)CN4CC(O)C4)C3)cn2c1N(C)c1nc(-c2ccc(F)cc2)cs1` [Compound 179, N-(1-(2-ethyl-3-((4-(4-fluorophenyl)thiazol-2-yl)(methyl)amino)imidazo[1,2-a]pyridin-6-yl)azetidin-3-yl)-2-(3-hydroxyazetidin-1-yl)acetamide], for which the IC50 was more than 1000 nM at hENPP2 [1] and 0.01 to 100 nM on hENPP2 [2].

Take `CCc1nc2ccc(C3CCN(S(=O)(=O)CCCN4CCCC4)CC3)cn2c1N(C)c1nc(-c2ccc(F)cc2)cs1` [Compound 89, {2-Ethyl-6-[1-(3-pyrrolidin-1-yl-propane-1-sulfonyl)-piperidin-4-yl]-imidazo[1,2-a]pyridin-3-yl}-[4-(4-fluoro-phenyl)-thiazol-2-yl]-methyl-amine]: the IC50 is 100 to 500 nM at hENPP2 [1] and 0.01 to 100 nM on hENPP2 [2].

`CCc1nc2ccc(C3=CN(S(C)(=O)=O)CCC3)cn2c1N(C)c1nc(-c2ccc(Cl)cc2)cs1` [Compound 69, 4-(4-chlorophenyl)-N-(2-ethyl-6-(1-(methylsulfonyl)-1,4,5,6-tetrahydropyridin-3-yl)imidazo[1,2-a]pyridin-3-yl)-N-methylthiazol-2-amine]: the results for the IC50 on hENPP2 [1] and on hENPP2 [2] were more than 1000 nM and 0.01 to 100 nM, respectively.

For the molecule `CCc1nc2ccc(C3CCN(S(C)(=O)=O)CC3)cn2c1N(C)c1nc(-c2ccc(F)cc2O)cs1` [Compound 224, 2-(2-((2-ethyl-6-(1-(methylsulfonyl)piperidin-4-yl)imidazo [1,2-a]pyridin-3-yl)(methyl)amino)thiazol-4-yl)-5-fluorophenol], the IC50 on hENPP2 [1] is more than 1000 nM; at hENPP2 [2], 0.01 to 100 nM.

On to `CCc1nc2ccc(C3CCN(CC(=O)N(C)C)CC3)cn2c1N(C)c1nc(-c2ccc(F)cc2)c(CO)s1` [Compound 157, 2-(4-(2-ethyl-3-((4-(4-fluorophenyl)-5-(hydroxymethyl)thiazol-2-yl)(methyl)amino)imidazo[1,2-a]pyridin-6-yl)piperidin-1-yl)-N,N-dimethylacetamide], for which the results for the IC50 against hENPP2 [1] and on hENPP2 [2] were more than 1000 nM and 0.01 to 100 nM, respectively.

As for `CCc1nc2ccc(C3CCNCC3)cn2c1N(C)c1nc(-c2ccc(F)cc2)cs1` [Compound 216, N-(2-ethyl-6-(piperidin-4-yl)imidazo[1,2-a]pyridin-3-yl)-4-(4-fluorophenyl)-N-methylthiazol-2-amine], the IC50 against hENPP2 [1] is more than 1000 nM; at hENPP2 [2], 0.01 to 100 nM.

On to `CCC(=O)N1CCC(c2ccc3nc(CC)c(N(C)c4nc(-c5ccc(F)cc5)cs4)n3c2)CC1` [Compound 215, 1-(4-(2-ethyl-3-((4-(4-fluorophenyl)thiazol-2-yl)(methyl)amino)imidazo[1,2-a]pyridin-6-yl)piperidin-1-yl)propan-1-one], for which the IC50 fell in the range of 100 to 500 nM against hENPP2 [1] and 0.01 to 100 nM on hENPP2 [2].

Regarding `CCc1nc2ccc(C3CCN(C(C)C)CC3)cn2c1N(C)c1nc(-c2ccc(F)cc2)cs1` [Compound 218, N-(2-ethyl-6-(1-isopropylpiperidin-4-yl)imidazo[1,2-a]pyridin-3-yl)-4-(4-fluorophenyl)-N-methylthiazol-2-amine], the IC50 against hENPP2 [1] is more than 1000 nM; on hENPP2 [2], 0.01 to 100 nM.

As to `CCc1nc2ccc(N3CCN(CC(=O)N(C)C)CC3)cn2c1N(C)c1nc(-c2ccc(F)cc2)c(C(=O)C(F)(F)F)s1` [Compound 158, 2-(4-(2-ethyl-3-((4-(4-fluorophenyl)-5-(2,2,2-trifluoroacetoyl)thiazol-2-yl)(methyl)amino)imidazo[1,2-a]pyridin-6-yl)piperazin-1-yl)-N,N-dimethylacetamide], the IC50 against hENPP2 [1] is 100 to 500 nM; on hENPP2 [2], 0.01 to 100 nM.

As to `CCc1nc2ccc(C3=CCN(C(=O)OC(C)(C)C)CC3)cn2c1N(C)c1nc(-c2ccc(F)cc2)cs1` [Compound 214, tert-butyl 4-(2-ethyl-3-((4-(4-fluorophenyl)thiazol-2-yl)(methyl)amino)imidazo[1,2-a]pyridin-6-yl)-5,6-dihydropyridine-1(2H)-carboxylate], the IC50 against hENPP2 [1] is more than 1000 nM; at hENPP2 [2], 0.01 to 100 nM.

`CCc1nc2ccc(C3CCN(CC(N)=O)CC3)cn2c1N(C)c1nc(-c2ccc(F)cc2)cs1` [Compound 125, 2-(4-(2-ethyl-3-((4-(4-fluorophenyl)thiazol-2-yl)(methyl)amino)imidazo[1,2-a]pyridin-6-yl)piperidin-1-yl)acetamide]: the IC50 against hENPP2 [1] is more than 1000 nM; on hENPP2 [2] it was 0.01 to 100 nM.

Regarding `CCc1nc2ccc(N3CCCS3(=O)=O)cn2c1N(C)c1nc(-c2ccc(F)cc2)cs1` [Compound 229, [6-(1,1-Dioxo-isothiazolidin-2-yl)-2-ethyl-imidazo[1,2-a]pyridin-3-yl]-[4-(4-fluoro-phenyl)-thiazol-2-yl]-methyl-amine], the IC50 against hENPP2 [1] was more than 1000 nM; on hENPP2 [2] it was 100 to 500 nM.

For `CCc1nc2ccc(C3=CCN(S(=O)(=O)CCl)CC3)cn2c1N(C)c1nc(-c2ccc(F)cc2)cs1` [Compound 67, N-(6-(1-(chloromethylsulfonyl)-1,2,3,6-tetrahydropyridin-4-yl)-2-ethylimidazo[1,2-a]pyridin-3-yl)-4-(4-fluorophenyl)-N-methylthiazol-2-amine], the half-inhibitory concentration (IC50) against hENPP2 [1] is more than 1000 nM; at hENPP2 [2] it was 0.01 to 100 nM.

With `CCc1nc2ccc(C3CCN(S(C)(=O)=O)CC3)cn2c1N(C)c1nc(-c2ccc(F)cc2)c(C)s1` [Compound 101, N-(2-ethyl-6-(1-(methylsulfonyl)piperidin-4-yl)imidazo [1,2-a]pyridin-3-yl)-4-(4-fluorophenyl)-N,5-dimethylthiazol-2-amine], the IC50 at hENPP2 [1] is more than 1000 nM; on hENPP2 [2] it was 0.01 to 100 nM.

As for `CCc1nc2ccc(C3CCN(Cc4ccccc4)CC3)cn2c1N(C)c1nc(-c2ccc(F)cc2)cs1` [Compound 217, [6-(1-Benzyl-piperidin-4-yl)-2-ethyl-imidazo[1,2-a]pyridin-3-yl]-[4-(4-fluoro-phenyl)-thiazol-2-yl]-methyl-amine], the IC50 is more than 1000 nM at hENPP2 [1] and 0.01 to 100 nM at hENPP2 [2].

On to `CCc1nc2ccc(N3CCNC3=O)cn2c1N(C)c1nc(-c2ccc(Cl)cc2)cs1` [Compound 183, 1-(3-((4-(4-chlorophenyl)thiazol-2-yl)(methyl)amino)-2-ethylimidazo[1,2-a]pyridin-6-yl)imidazolidin-2-one], for which the IC50 was more than 1000 nM at hENPP2 [1] and 0.01 to 100 nM on hENPP2 [2].

Turning to `CCc1nc2ccc(C3CCN(CC(=O)N(C)C)CC3)cn2c1N(C)c1nc(-c2ccc(F)cc2)ns1` [Compound 191, 2-(4-(2-ethyl-3-((3-(4-fluorophenyl)-1,2,4-thiadiazol-5-yl)(methyl)amino)imidazo[1,2-a]pyridin-6-yl)piperidin-1-yl)-N,N-dimethylacetamide], the IC50 on hENPP2 [1] was more than 1000 nM; at hENPP2 [2], 0.01 to 100 nM.

With `CCc1nc2ccc(C3=CCN(S(C)(=O)=O)CC3)cn2c1N(C)c1nc(-c2ccc(F)cc2)ns1` [Compound 199, N-(2-ethyl-6-(1-(methylsulfonyl)-1,2,3,6-tetrahydropyridin-4-yl)imidazo[1,2-a]pyridin-3-yl)-3-(4-fluorophenyl)-N-methyl-1,2,4-thiadiazol-5-amine], the IC50 was more than 1000 nM at hENPP2 [1] and 100 to 500 nM on hENPP2 [2].

As for `CCc1nc2ccc(N3CCN(S(=O)(=O)CC(=O)O)CC3)cn2c1N(C)c1nc(-c2ccc(F)cc2)cs1` [Compound 60, 2-(4-(2-ethyl-3-((4-(4-fluorophenyl)thiazol-2-yl)(methyl)amino)imidazo[1,2-a]pyridin-6-yl)piperazin-1-ylsulfonyl)acetic acid], the IC50 at hENPP2 [1] was more than 1000 nM; on hENPP2 [2], 0.01 to 100 nM.

As for `CCc1nc2ccc(C3CCN(S(C)(=O)=O)CC3)cn2c1N(C)c1nc(-c2ccc(C(C)(C)C)cc2)cs1` [Compound 81, 4-(4-tert-butylphenyl)-N-(2-ethyl-6-(1-(methylsulfonyl)piperidin-4-yl)imidazo [1,2-a]pyridin-3-yl)-N-methylthiazol-2-amine], the IC50 against hENPP2 [1] was more than 1000 nM; at hENPP2 [2] it was 0.01 to 100 nM.

In the case of `CCc1nc2ccc(C3=CCN(S(=O)(=O)C(F)(F)F)CC3)cn2c1N(C)c1nc(-c2ccc(Cl)cc2)cs1` [Compound 210, 4-(4-chlorophenyl)-N-(2-ethyl-6-(1-(trifluoromethylsulfonyl)-1,2,3,6-tetrahydropyridin-4-yl)imidazo[1,2-a]pyridin-3-yl)-N-methylthiazol-2-amine], the IC50 on hENPP2 [1] is more than 1000 nM; on hENPP2 [2] it was 0.01 to 100 nM.

In the case of `CCc1nc2ccc(C3CCN(S(=O)(=O)CCCCl)CC3)cn2c1N(C)c1nc(-c2ccc(F)cc2)cs1` [Compound 86, N-(6-(1-(3-chloropropylsulfonyl)piperidin-4-yl)-2-ethylimidazo[1,2-a]pyridin-3-yl)-4-(4-fluorophenyl)-N-methylthiazol-2-amine], the IC50 against hENPP2 [1] was more than 1000 nM; at hENPP2 [2], 0.01 to 100 nM.

Broadly, the IC50 is the midpoint of a concentration-inhibition curve.
